In ChEMBL document CHEMBL4392883, “Konamycins A and B and Rubromycins CA1 and CA2, Aromatic Polyketides from the Tunicate-Derived Streptomyces hyaluromycini MB-PO13T” (2019):
≈ marks a conversion by molar mass, not a printed value.

Tests used:
Format in all cases: functional
[1] = Antioxidant activity assessed as superoxide dismutase-like activity measured after 20 mins by WST-based assay
[2] = tested on: Escherichia coli; test: Antimicrobial activity against Escherichia coli NIH-JC2 measured after 20 hrs; conditions: NIH-JC2, 20 h
[3] = tested on: Staphylococcus aureus; test: Antimicrobial activity against Staphylococcus aureus IFO 12732 measured after 20 hrs; conditions: IFO 12732, 20 h
[4] = tested on: Mycolicibacterium smegmatis; test: Antimicrobial activity against Mycobacterium smegmatis NBRC 3207 measured after 20 hrs; conditions: NBRC 3207, 20 h
[5] = tested on: Bacillus cereus; test: Antimicrobial activity against Bacillus cereus NBRC 15305 measured after 20 hrs; conditions: NBRC 15305, 20 h
[6] = tested on: Kocuria rhizophila; test: Antimicrobial activity against Kocuria rhizophila ATCC 9341 measured after 20 hrs; conditions: DC2201 
[7] = tested on: Enterococcus faecalis; test: Antimicrobial activity against Enterococcus faecalis NBRC 100480 measured after 20 hrs
[8] = tested on: Candida albicans; test: Antimicrobial activity against Candida albicans NBRC 1594 measured after 20 hrs; conditions: NBRC 1594, 20 h
[9] = tested on: Kluyveromyces marxianus; test: Antimicrobial activity against Kluyveromyces fragilis ATCC 8635 measured after 20 hrs; conditions: ATCC 8635, 20 h
[10] = Antioxidant activity assessed as DPPH radical scavenging activity

Compound | SC50 [1] | MIC [2] | MIC [3] | MIC [4] | MIC [5] | MIC [6] | MIC [7] | MIC [8] | MIC [9] | SC50 [10]
O=C(O)c1cc(O)c(O)c(O)c1 | 102 µM | – | – | – | – | – | – | – | – | –
COC1=CC(=O)c2c(O)c3c(c(O)c2C1=O)O[C@@]1(CCc2cc4cc(C(=O)O)oc(=O)c4c(O)c2O1)C3 | – | > 100 µg/mL | 0.2 µg/mL (≈ 0.393 µM) | 3.1 µg/mL (≈ 6.1 µM) | 12.5 µg/mL (≈ 24.6 µM) | 12.5 µg/mL (≈ 24.6 µM) | 100 µg/mL (≈ 197 µM) | 6.3 µg/mL (≈ 12.4 µM) | 12.5 µg/mL (≈ 24.6 µM) | –
CC(=O)O[C@H]1C2=C(C=C3C(=O)c4c(ccc([C@H]5CC[C@H](O)[C@@H](C)O5)c4O)C(O)=C32)C(=O)[C@@](C)(O)[C@@H]1OC(=O)CCC(=O)O | 66 µM | – | – | – | – | – | – | – | – | 21 µM
Cc1c(C)c2c(c(C)c1O)CCC(C)(C(=O)O)O2 (stereo not given) | – | – | – | – | – | – | – | – | – | 9 µM
COC1=CC(=O)c2c(O)c3c(c(O)c2C1=O)O[C@@]1(CCc2cc4cc(C(=O)O)oc(=O)c4c(O)c2O1)[C@H]3O | – | > 100 µg/mL | 0.4 µg/mL (≈ 0.763 µM) | 12.5 µg/mL (≈ 23.8 µM) | 50 µg/mL (≈ 95.3 µM) | 50 µg/mL (≈ 95.3 µM) | > 100 µg/mL | > 100 µg/mL | > 100 µg/mL | –
